Measurements as given in ChEMBL document CHEMBL1154486, “Synthesis and evaluation of in vitro anti-tuberculosis activity of N-substituted glycolamides” (2009).
≈ marks a conversion by molar mass, not a printed value.

System: Mycobacterium tuberculosis
Experiment: Antimycobacterial activity against Mycobacterium tuberculosis H37Rv ATCC 27294 by microplate alamar blue assay
Format: functional

| SMILES | MIC [mg/L] |
| --- | --- |
| O=C(CO)NN1CCOCC1 | 57 (≈ 356 µM) |
| O=C(CO)N1CCOCC1 | 13.8 (≈ 94.7 µM) |
| O=C(CO)N1CCCCC1 | 38.8 (≈ 271 µM) |
| O=C(CO)N1CCC(O)CC1 | 33.2 (≈ 209 µM) |
| CC(CO)(CO)NC(=O)CO | 67.5 (≈ 414 µM) |
| O=C(CO)N(CCO)CCO | 12.5 (≈ 76.6 µM) |
| O=C(CO)N1CCN(CCO)CC1 | 14.2 (≈ 75.7 µM) |
| O=C(CO)N1CCN(C(=O)CO)CC1 | 15.8 (≈ 77.9 µM) |
| O=C(CO)N1CCCC(O)C1 (centres undefined) | 60 (≈ 377 µM) |
| O=C(CO)N1CCCC1 | 25.5 (≈ 197 µM) |
| CC[C@@H](CO)NCCN[C@@H](CC)CO [ETHAMBUTOL] | 5 (≈ 24.5 µM) |
| O=C(CO)NCCO | 87.5 (≈ 735 µM) |
| CCC(CO)NC(=O)CO (centres undefined) | 29.5 (≈ 200 µM) |
| O=C(CO)NCCc1ccccc1 | 74 (≈ 413 µM) |
